# Measurements taken from patent US12427134B2, “Methods of reducing the risk of cardiovascular events in a subject with atrial fibrillation and/or atrial flutter” (priority 2019, dated 2025).
# Read-outs that look alike come from different tables or passages of the source.
# Tests used:
# [1] = test system: hypertriglyceridemic patients with cardiovascular disease or at high risk for cardiovascular disease; details: human, in vivo
# Source text: Compliance Control: Unless clear contraindications arise, patients were strongly encouraged to adhere to their treatment regimen with the study drug for the duration of the trial. Any interruptions of therapy were, if possible, brief (e.g., <4 weeks) and only for clinically indicated reasons, such as adverse events. Discontinuations were discouraged as much as possible. Any discontinuations were based on compelling clinical reasons. For every patient, an assessment of compliance to the study drug treatment regimen was obtained at each scheduled visit. Study medication was dispensed in amounts exceeding the amount required for the study. Patients were instructed to return all unused study medication at the next visit. Compliance to the study drug regimen was evaluated at each visit by counting unused capsules. Discrepancies were evaluated and discussed with each patient to assess compliance. […] At the end of the study, the final study medication compliance was determined by unused capsule count. […]
# Occurrence of an outcome event according to the judgment of the investigator was not considered a valid reason for study drug discontinuation. Patients whose treatment with study medication was discontinued early, and had not withdrawn consent, stayed in the study and were monitored until the end of the study. […]
# [2] = test system: hypertriglyceridemic patients with cardiovascular disease or at high risk for cardiovascular disease; details: human, in vivo; remark: listed apart in the source
smiles,measurement,setting,value
"CC/C=C\C/C=C\C/C=C\C/C=C\C/C=C\CCCC(=O)OCC [AMR101, eicosapentaenoic acid ethyl ester]",Early study drug discontinuation: adverse event,[1],9.2%
same,"TEAE: Infections and infestations, %",[2]; female,(48.9) %
same,"SAE class infections and infestations, patients",[2],8.1%
same,"Serious adverse event - Infections and infestations (SOC), % patients",[2],(8.1) %
same,"Serious adverse event - Infections and infestations (SOC), n patients",[2],332
same,"Serious adverse event - Sepsis, % patients",[2],(0.6) %
same,"Serious adverse event - Sepsis, n patients",[2],25
same,"Serious adverse event - Urinary tract infection, % patients",[2],(0.6) %
same,"Serious adverse event - Urinary tract infection, n patients",[2],25
same,"Severe TEAE class infections and infestations, patients",[2],5.1%
same,"Severe TEAE: Infections and infestations, %",[2],(5.1) %
same,"Severe TEAE: Sepsis, %",[2],(0.5) %
same,"Severe TEAE: Urinary tract infection, %",[2],(0.3) %
same,"TEAE class infections and infestations, patients",[2],44.6%
same,"TEAE: Upper respiratory tract infection, %",[2],(7.6) %
same,"TEAE: Urinary tract infection, %",[2],(6.2) %
same,"TEAE: Infections and infestations, %",[2]; male,(42.8) %
